Data from article PMC10459870, “A New Diterpenoid of Indonesian Scoparia dulcis Linn: Isolation and Cytotoxic Activity against MCF-7 and T47D Cell Lines” (Molecules, 2023).
In brackets after ≈: the same amount, converted by molar mass.

Key:
[1] = test system: MCF-7 breast cancer cells; assay: MTT cytotoxic activity assay, MCF-7; type: cell-based; settings: for IC50: Homo sapiens, MCF7, MTT, 24 h treatment, mean ± SD; for Selectivity Index (SI) MCF-7: IC50 Vero / IC50 MCF-7
Procedure: (§1) A cytotoxic test was performed to obtain an overview of the activity of the sample on the inhibition of cancer cells. The parameter used was the inhibition concentration of 50% (IC50), a concentration that inhibits cells by 50% of the cell population. The IC50 value was calculated from the results of a linear regression between log concentration and the percentage of cell viability.
(§2) The cell lines were obtained from the Parasitology Laboratory, Faculty of Medicine, Universitas Gadjah Mada, Yogyakarta, Indonesia. Each MCF-7 and T47D cell was cultured with complete media, namely, DMEM media for MCF-7 and RPMI for T47D, which contained 10% FBS, 2% penicillin–streptomycin, and 0.5% fungzon. Cultures were stored in a 5% CO2 incubator and for harvesting cells using trypsin, as well as sample solvents using DMSO.
(§3) Compound (1) was tested for its cytotoxic activity using an MTT assay on MCF-7 and T47D breast cancer cells. Briefly, 1 × 10^4 MCF-7 and T47D cells/wells were grown in 96 well plates and incubated for 24 h in a CO2 incubator. The cells were treated with sample concentrations of 200, 100, 50, 25, 12.5, and 6.25 μg/mL for MCF-7 and 50, 25, 12.5, 6.25, 3.125, and 1.5625 μg/mL for T47D and then incubated for 24 h in a CO2 incubator. After incubation, the condition of the cells was observed under a microscope. The cell media was discarded followed by washing with phosphate-buffered saline (PBS). Then 0.5 mg/mL MTT reagent, up to 100 µL, was added to each well followed by incubation again for 4 h in a CO2 incubator. The cells were observed under a microscope, and after the formazan was clear, 100 µL of SDS stopper reagent was added in 0.01 N HCl. The plate was incubated at room temperature in a dark place for 1 × 24 h, then the absorbance was read with a microplate reader at a wavelength of 595 nm. Analysis of the absorbance data for the cytotoxic test was carried out by calculating the percentage of viable cells using the following formula.
(§4) IC50 values were calculated using a linear regression between sample concentrations and the percent (%)cell viability.

T47D breast cancer cells [2] = assay: MTT cytotoxic activity assay, T47D; type: cell-based; settings: for IC50: Homo sapiens, T47D, MTT, 24 h treatment, mean ± SD; for Selectivity Index (SI) T47D: IC50 Vero / IC50 T47D
Procedure: as §1, §2, §3, §4

Vero cells = assay: MTT cytotoxic activity assay, Vero; type: cell-based; settings: Chlorocebus sabaeus, mean ± SD
PPAR-γ = settings: reported in the literature; read-out: EC50, agonistic activity against PPAR-γ; cited from earlier work
T47D breast cancer cells [3] = assay: Apoptosis induction, Annexin V/PI flow cytometry, T47D; type: cell-based
Procedure: (§5) The method used in this study was the detected Annexin V method using flow cytometry, which allowed for observing the induction of apoptosis that occurs in cells following treatment. Annexin V is a member of a family of phospholipid-binding proteins that are strongly negatively charged on the cell membrane. Cell death resulting from apoptosis or necrosis can be differentiated using propidium iodide (PI) staining intercalation with DNA [24].
(§6) This test was carried out on isolated samples (compound (1)). Culture confluent cells were distributed to 6-well plates, each 2000 µL (for treatment and for cell control). After 24 h of incubation, concentration series were made. The cells were washed with PBS, and 1000 µL of the sample solution with a certain concentration series was put in the well. For the control cells, 1000 µL of culture medium was added well. The cells were again incubated for 24 h in the CO incubator. After incubation, media from the 6-well plates were inserted into a conical tube, then washed with 1000 µL PBS and put into the same conical tube. Then, 200 µL trypsin-EDTA 0.25% was added and incubated for 3 min. Then, 1000 µL of culture medium was also added and resuspended until the cells were released one by one. The cells are then transferred to a conical and centrifuged at 2000 rpm for 3 min. For cell cycle observations, a deep cell precipitates conical tube covered with aluminum foil was dissolved with 400 µL of the PI reagent containing 1 mg/mL PI, 10 mg/mL RNAse, and 0.1% (v/v) Triton-X 100. The cells were resuspended and incubated for 5 min, and then the cell suspension was transferred into a flow cytometry tube for analysis (Ayers et al., 2011). For observations of apoptosis, the supernatant was discarded, then 100 µL of Annexin-V-FLUOS staining was added consisting of 100 µL binding buffer, 2 µL Annexin V, and 2 µL PI. This was followed by incubation in a dark space for 10 min and then analysis using a flow cytometer.

[4] = test system: MCF-7 breast cancer cells; assay: Apoptosis induction, Annexin V/PI flow cytometry, MCF-7; type: cell-based
Procedure: as §5, §6

T47D breast cancer cells [5] = assay: Cell cycle distribution by flow cytometry (PI), T47D; type: cell-based
Procedure: (§7) Cell cycle inhibition and apoptosis induction tests were carried out on compound (1). The analysis was performed using the flow cytometry method to determine the percentage of living cells in each phase of the cell cycle.
as §6, with “The cells were resuspended and incubated for 5 min, and then the cell suspension was transferred into a flow cytometry tube for analysis (Ayers et al., 2011). For observations of apoptosis, the supernatant was discarded, then 100 µL of Annexin-V-FLUOS staining was added consisting of 100 µL binding buffer, 2 µL Annexin V, and 2 µL PI. This was followed by incubation in a dark space for 10 min and then analysis using a flow cytometer.” left out

[6] = test system: MCF-7 breast cancer cells; assay: Cell cycle distribution by flow cytometry (PI), MCF-7; type: cell-based
Procedure: as §7, §6

COc1cccc2c1C(=O)c1c(O)c3c(c(O)c1C2=O)C[C@@](O)(C(=O)CO)C[C@@H]3O[C@H]1C[C@H](N)[C@H](O)[C@H](C)O1 [Doxorubicin, reference compound]
IC50 [1]: 16.6 ± 5.85 µg/mL (≈ 30.6 µM)
Selectivity Index (SI) MCF-7 [1]: 4.2
IC50 (T47D breast cancer cells [2]): 35.1 ± 3.14 µg/mL (≈ 64.5 µM)
Selectivity Index (SI) T47D (T47D breast cancer cells [2]): < 3
IC50 (Vero cells): 69.5 ± 6.8 µg/mL (≈ 128 µM)

C=C1[C@@H](OC(C)=O)[C@H](OC(=O)c2ccccc2)[C@H]2[C@@](C)(CCC[C@]2(C)C(=O)O)[C@H]1CC/C(C)=C/CO [Compound (3), 4-epi-7α-O-acetylscoparic acid A]
EC50 (PPAR-γ): 900 ± 300 nM

C=C1CC(OC(=O)c2ccccc2)C2C(C)(CO)CC(O)CC2(C)C1CCC(C)=CCO (stereo not drawn) [Compound (1), 2α-hydroxyscopadiol]
Apoptosis against T47D, % Parent, P3 (early apoptosis) (T47D breast cancer cells [3]; 1/2 IC50, 24 h): 6.1%
Apoptosis against T47D, % Parent, P4 (late apoptosis) (T47D breast cancer cells [3]; 1/2 IC50, 24 h): 3.0%
Apoptosis against T47D, % Parent, P3 (early apoptosis) (T47D breast cancer cells [3]; 1/4 IC50, 24 h): 5%
Apoptosis against T47D, % Parent, P3 (early apoptosis) (T47D breast cancer cells [3]; 1 IC50, 24 h): 24.8%
Apoptosis against T47D, % Parent, P4 (late apoptosis) (T47D breast cancer cells [3]; 1 IC50, 24 h): 2.9%
IC50 [1]: 70.6 ± 1.54 µg/mL (≈ 159 µM)
Selectivity Index (SI) MCF-7 [1]: 0.51
cytotoxic activity class, MCF-7 ([1]; grouped according to IC50): strong (“strong cytotoxic” IC50 is 10–100 µg/mL)
IC50 (T47D breast cancer cells [2]): < 3.12 µg/mL
Selectivity Index (SI) T47D (T47D breast cancer cells [2]): > 3
cytotoxic activity class, T47D (T47D breast cancer cells [2]; grouped according to IC50): very strong (“very strong cytotoxic”: IC50 < 10 µg/mL)
IC50 (Vero cells): 36.5 ± 1.41 µg/mL (≈ 82.5 µM)
Apoptosis against MCF-7, % Parent, P3 (early apoptosis) ([4]; 1/2 IC50, 24 h): 33.5%
Apoptosis against MCF-7, % Parent, P4 (late apoptosis) ([4]; 1/2 IC50, 24 h): 16.8%
Apoptosis against MCF-7, % Parent, P4 (late apoptosis) ([4]; 1/4 IC50, 24 h): 15.1%
Apoptosis against MCF-7, % Parent, P3 (early apoptosis) ([4]; 1 IC50, 24 h): 80.7%
Apoptosis against MCF-7, % Parent, P4 (late apoptosis) ([4]; 1 IC50, 24 h): 11.7%
% Parent, G1, Cell Cycles against T47D (T47D breast cancer cells [5]; 1/2 IC50, 24 h): 50.9%
% Parent, G1, Cell Cycles against T47D (T47D breast cancer cells [5]; 1 IC50, 24 h): 53.3%
% Parent, G1, Cell Cycles against MCF-7 ([6]; 1/2 IC50, 24 h): 76.5%
% Parent, G2-M, Cell Cycles against MCF-7 ([6]; 1/2 IC50, 24 h): 17.2%
% Parent, G1, Cell Cycles against MCF-7 ([6]; 1 IC50, 24 h): 78.4%
